Results on eleven molecules are retold here after publication PMC3597463 (Analytical chemistry, 2013).

Data set [1] deals with Torpedo marmorata nicotinic acetylcholine receptor (nAChR). As to the kind of experiment: nAChR/microsphere-based inhibition assay. In kind it is binding. The following applies: for IC50 expressed as level in shellfish meat: assuming 100% recoveries; for Interference with the Luminex nAChR-based assay: restated in discussion, concentration not given there.
Data set [2] has as its system mice. The following applies: cited from earlier work; for oral LD50: mice; for LD50: fed to fasted mice.
The format of data set [3] is physicochemical. The following applies: for % Recovery (toxin detected after storage versus freshly analyzed samples): 7 ng/ml, 4 weeks.
For data set [4], the system named is nAChR. The following applies: chemiluminescence assay; cited from earlier work.
In data set [5] the test system is nAChR. The following applies: fluorescence polarization assay; cited from earlier work. On the technique in general: In fluorescence polarisation assays a small probe gives low polarisation when free and higher when bound to something large.
The test system of data set [6] is Lymnaea stagnalis acetylcholine binding protein (Ls-AChBP). As to the kind of experiment: Ls-AChBP/microsphere-based inhibition assay. The following applies: buffer.
For data set [7], the system named is mice. The following applies: fed to fasted mice, from reported LD50.
For data set [8], the system named is nAChR. The following applies: cited from earlier work.
Data set [9] has as its target Torpedo marmorata nicotinic acetylcholine receptor (Torpedo marmorata) (UniProt P02711). Nature of the data set: […].
The target of data set [10] is Acetylcholine binding protein from Lymnaea stagnalis (Lymnaea stagnalis, UniProt P58154 20-229). Nature of the data set: […].

Read-outs that look alike come from different tables or passages of the source.

Chain of Acetylcholine binding protein from Lymnaea stagnalis (P58154 20-229): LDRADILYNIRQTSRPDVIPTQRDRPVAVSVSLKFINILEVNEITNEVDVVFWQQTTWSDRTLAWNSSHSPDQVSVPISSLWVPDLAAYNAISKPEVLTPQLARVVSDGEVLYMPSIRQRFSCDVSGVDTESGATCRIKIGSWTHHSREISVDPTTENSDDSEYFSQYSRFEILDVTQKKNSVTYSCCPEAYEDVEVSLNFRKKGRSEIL
Chain of Torpedo marmorata nicotinic acetylcholine receptor (Torpedo marmorata) (P02711 whole entry, looked up): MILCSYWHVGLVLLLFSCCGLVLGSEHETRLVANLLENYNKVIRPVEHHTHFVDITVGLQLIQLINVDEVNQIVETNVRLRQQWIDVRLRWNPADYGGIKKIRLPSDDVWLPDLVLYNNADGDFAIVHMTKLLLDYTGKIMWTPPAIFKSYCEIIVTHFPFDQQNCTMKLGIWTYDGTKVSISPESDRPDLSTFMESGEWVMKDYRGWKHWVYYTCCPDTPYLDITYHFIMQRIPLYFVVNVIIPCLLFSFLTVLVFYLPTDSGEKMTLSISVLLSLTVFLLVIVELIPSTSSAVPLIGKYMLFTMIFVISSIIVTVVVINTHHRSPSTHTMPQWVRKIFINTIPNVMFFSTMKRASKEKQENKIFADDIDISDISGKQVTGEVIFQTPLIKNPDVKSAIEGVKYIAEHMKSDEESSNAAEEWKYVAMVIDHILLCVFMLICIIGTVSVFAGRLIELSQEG

On to 20-methyl spirolide G, for which, in data set [1] (nAChR assay, buffer), the “Cross-reactivity (IC50 of 13-desmethyl spirolide C / IC50 of cyclic imine x 100)” value came out at 95%. Moreover, the “oral LD50” value with mice [2] (administered with food) is recorded as 500 Wg/kg; with mice [2] (by gavage), 160 Wg/kg.

In the case of `C=C1CCCC2=NCC(C)C(C)CC23CCC(C2C=C(C)C(=O)O2)=C(C)C3/C=C(/C)C(O)CC2CCC3(CCC4(OC(CCC4(C)O)C1)O3)O2` (centres unmarked) [13-desmethyl spirolide C], the half-maximal inhibitory concentration (IC50) in data set [1] was 10 nM; in [1] (buffer), 7.4 ± 0.7 ng/mL; in data set [1] (buffer (PBS-BT/20% EtOH), n = 8) it was 10.8 ± 0.9 nM; in data set [1] (clam extract) it was 10.3 ± 1.4 ng/mL; in [1] (clam extract, n = 2) it was 14.9 ± 1.9 nM; in [1] (mussel extract), 11.3 ± 1.1 ng/mL. The half-inhibitory concentration (IC50) in [1] (mussel extract, n = 6) is 16.3 ± 1.5 nM; in [1] (scallop extract), 8.6 ± 1.5 ng/mL; in data set [1] (scallop extract, n = 5), 12.4 ± 2.2 nM; in the data set with nAChR [4], 35 nM; with nAChR [5], 100 nM. Moreover, the “IC20” value came out at 0.2 ± 0.04 ng/mL in data set [1] (buffer); 0.3 ± 0.01 ng/mL in data set [1] (clam extract); 0.4 ± 0.1 ng/mL in [1] (mussel extract); 0.4 ± 0.07 nM in [1] (read-out: IC20 (nM), lower end of dynamic range, buffer); 0.5 ± 0.01 nM in data set [1] (read-out: IC20 (nM), lower end of dynamic range, clam extract); 0.6 ± 0.2 nM in [1] (read-out: IC20 (nM), lower end of dynamic range, mussel extract). Moreover, the IC20 in data set [1] (read-out: IC20 (nM), lower end of dynamic range, scallop extract) came out at 0.5 ± 0.2 nM; in data set [1] (scallop extract) it was 0.4 ± 0.2 ng/mL. Besides, the “IC80” value in data set [1] (clam extract) was 160 ± 6 ng/mL; in [1] (mussel extract), 160 ± 8 ng/mL; in [1] (read-out: IC80 (nM), upper end of dynamic range, clam extract), 231 ± 23 nM; in data set [1] (read-out: IC80 (nM), upper end of dynamic range, mussel extract), 232 ± 11 nM; in data set [1] (read-out: IC80 (nM), upper end of dynamic range, scallop extract), 201 ± 9 nM; in data set [1] (scallop extract) it was 139 ± 6.5 ng/mL. Besides, the “IC50 expressed as level in shellfish meat” value in [1] (clam extract) was found to be 411.6 ± 54.8 Wg/kg; in data set [1] (mussel extract), 451.3 ± 42.4 Wg/kg; in data set [1] (scallop extract) it was 344.2 ± 60.3 Wg/kg. Besides, in data set [1] (nAChR assay, buffer), the “Detection efficiency of 13-desmethyl spirolide C relative to gymnodimine” value came out at 24 times. Further, the “% Recovery (toxin detected after storage versus freshly analyzed samples)” value was determined as 109 ± 6% in data set [3] (buffer (PBS-BT/20% EtOH), 4–8 °C); 98.1 ± 6.3% in data set [3] (buffer (PBS-BT/20% EtOH), −20 °C); 135 ± 23% in data set [3] (mussel extract, 4–8 °C); 121 ± 16% in data set [3] (mussel extract, −20 °C); 92.0 ± 9.2% in data set [3] (scallop extract, 4–8 °C); 85.5 ± 5.5% in [3] (scallop extract, −20 °C). Moreover, the “% of toxin recovered after storage in mussel homogenate” value in [3] (spiked mussel homogenate, two weeks, −20 °C) is 105.7 ± 5.3%. For the same molecule, the LD50 with mice [2] is 0.5 mg/kg. Further, the “oral LD50” value in the data set on mice [2] (administered with food) is listed as 500 Wg/kg; in the data set with mice [2] (by gavage), 160 Wg/kg.

Consider `C/C(=C/C=C/[C@@H](C)C(=O)O)[C@H]1CN[C@H](C(=O)O)[C@H]1CC(=O)O` [domoic acid], for which the “Interference with the nAChR-based assay (maximum and minimum binding signals)” value (“Interference with the nAChR-based assay” for short) in data set [1] (10 μM) is “no effects on maximum and minimum binding signals”. Also, the “Interference with the Luminex nAChR-based assay” value in [1] is recorded as “do not interfere”.

As for `CC1=C[C@@H](C2=C(C)[C@@H]3/C=C(\C)[C@@H](O)CC[C@@H]4C[C@@H](C)[C@@H](O4)/C(C)=C/CCC4=NCCC[C@@]43CC2)OC1=O` [gymnodimine, Gymnodimine], the “Assay efficiency for gymnodimine relative to 13-desmethyl spirolide C” value in [6] stood at 14 fold. Further, the “Times less toxic than 13-desmethyl spirolide C” value in the data set with mice [7] is greater than 15 times. For the same molecule, in the data set on mice [2], the LD50 was greater than 7.5 mg/kg.

In the case of `C=C1[C@@H](O)[C@@H]2O[C@]3(CC[C@H](/C=C/[C@@H](C)[C@@H]4CC(C)=C[C@@]5(O[C@H](C[C@@](C)(O)C(=O)O)CC[C@H]5O)O4)O3)CC[C@H]2O[C@@H]1[C@@H](O)C[C@H](C)[C@H]1O[C@@]2(CCCCO2)CC[C@H]1C` [okadaic acid], the “Interference with the nAChR-based assay” value in data set [1] (10 μM) is “no effects on maximum and minimum binding signals”. Besides, the “Interference with the Luminex nAChR-based assay” value in data set [1] is listed as “do not interfere”. Moreover, the “Interference with nAChR based assays” value in the data set on nAChR [8] (previous studies) was “not shown any interferences”.

Consider `C=CCC(=C)/C=C/[C@@](C)(O)[C@H]1O[C@@H]2C[C@@H]3O[C@@H]4C[C@@H]5O[C@@H]6C[C@@H]7O[C@@H]8C[C@@H]9O[C@@H]%10C[C@@H]%11O[C@](C)(CCOS(=O)(=O)O)[C@@H](OS(=O)(=O)O)C[C@H]%11O[C@H]%10C[C@H]9O[C@H]8CC[C@@]7(C)O[C@@]6(C)CC[C@H](C)[C@H]5O[C@H]4C[C@@]3(C)O[C@H]2CC1=C` [yessotoxin], for which the “Interference with the nAChR-based assay” value in data set [1] (5 μM) was “no effects on maximum and minimum binding signals”. The “Interference with the Luminex nAChR-based assay” value in data set [1] was “do not interfere”. Further, the “Interference with nAChR based assays” value in the data set with nAChR [8] (previous studies) is on record as “not shown any interferences”.

As for Biotin-α-bungarotoxin (peptide), in data set [9], the maximum binding signal to background ratio came to 500.

Consider azaspiracid-2, for which the “Interference with nAChR based assays” value in the data set with nAChR [8] (previous studies) is recorded as “not shown any interferences”.

Turning to azaspirazid-1, the “Interference with the nAChR-based assay” value in data set [1] (1 μM) was “no effects on maximum and minimum binding signals”. Besides, the “Interference with the Luminex nAChR-based assay” value in data set [1] is given as “do not interfere”.

In the case of brevetoxin-2, the “Interference with nAChR based assays” value with nAChR [8] is listed as “not shown any interferences”.

B1: Biotin-α-bungarotoxin (peptide)
chain: IVCHTTATSPISAVTCPPGENLCYRKMWCDAFCSSRGKVVELGCAATCPSKKPYEEVTCCSTDKCNPHPKQRPG
Turning to B1, the “maximum binding signal to background ratio” value in [10] is roughly 2000.

Usually IC50 stands for the concentration that inhibits the measured activity by half. In general, IC20 refers to the point of the concentration-response curve where the effect stands at 20%. The IC80 is the point of the concentration-response curve where the effect stands at 80%. A word on the LD50: it is the dose expected to kill half of the subjects tested.
